# Assay results: patent publication USRE47388E1, “Agents for alleviating side effects” (TAIHO PHARMACEUTICAL CO., LTD., priority 1999, dated 2019)
# Where a name gives a salt, the structure may show the parent alone. Marks after values point to notes of the source that are not given here.
# Experiments:
# Yoshida sarcoma = experiment: Test 3: action on anti-tumor action of cancer drug (tumor weight); assay type: in vivo, Donryu male rats; conditions: for Tumor weight: day 8; for Anti-tumor action / inhibition of tumor weight (in words): CDDP alone 6 mg/kg, Compound 1 for seven consecutive days with CDDP; for Inhibition ratio (%): tumor shrinkage vs control
# [1] = Test 3: suppression of body weight increase in tumor-bearing rats; assay type: in vivo, Donryu male rats; conditions: for Suppression of body weight (in words): CDDP alone 6 mg/kg, Compound 1 for seven consecutive days with CDDP; for Body weight change: day 0 to day 8; for Weight change ratio (%): ratio of suppression of body weight increase vs control
# Method: CDDP was suspended in saline so as to obtain a 0.6 mg/ml suspension, and the suspension was stirred by use of a stirrer for about 20 minutes at room temperature. The suspension was subjected to sonication for 5 minutes while being cooled with ice to thereby obtain a test solution containing CDDP for administration at 6.0 mg/kg/day.
# Compound 1 was suspended in 0.5% HPMC so as to obtain a 3 mg/ml suspension, 10 mg/ml suspension, and 30 mg/ml suspension, respectively, and each suspension was stirred by use of a stirrer for about 20 minutes at room temperature. Each suspension was subjected to sonication for 5 minutes while being cooled with ice to thereby obtain test solutions containing Compound 1 for administration at 30 mg/kg/day, 100 mg/kg/day, and 300 mg/kg/day, respectively.
# Five-week-old Donryu male rats were divided into a control group and treatment groups so that the average body weights of the groups and the standard deviations (S.D.) of the groups were made to be as close to one another as possible. Yoshida sarcoma (2×10^4 cells/0.1 ml/rat) was subcutaneously transplanted on the back of each rat, and administration was started the day following the day of transplant. To each rat of the CDDP treatment alone groups, the CDDP solution of 6.0 mg/kg was intravenously administered on the first administration day, and a 0.5% HPMC solution was orally administered for seven consecutive days at a daily dose of 1.0 ml per 100 g of body weight. […] To each rat of the control group, saline was intravenously administered on the first administration day in a dose of 1.0 ml per 100 g of body weight. Simultaneously, a 0.5% HPMC solution was orally administered once a day for five consecutive days at a daily dose of 1.0 ml per 100 g of body weight. In order to observe the action of Compound 1 per se, Compound-1-administration alone groups were provided for administration at 30 mg/kg/day, 100 mg/kg/day, and 300 mg/kg/day, respectively.
# The rats were weighed on the day of transplantation (day 0) and the day following the day of final administration (day 8), and the suppression ratio of body weight increase was calculated by use of the following equation. Ratio of suppression of body weight increase (%)=(1−body weight changes of one treatment group/body weight changes of the control group)×100
# [2] = Test 2: delaying effect on diarrhea occurrence caused by CPT-11; assay type: in vivo, Donryu male rats; conditions: CPT-11 60 mg/kg/day i.v. every day for five days; Compound 1 30 mg/kg/day oral concomitantly
# Method: Irinotecan hydrochloride (hereinafter referred to as “CPT-11”; KAMPTO Injection 100 mg/5 ml; product of Yakult Co., Ltd.) was diluted with saline so as to obtain a 6 mg/ml solution for administration at 60 mg/kg/day.
# Compound 1 was suspended in a 0.5% hydroxypropylmethyl cellulose solution (hereinafter referred to as “0.5% HPMC”) so as to obtain a 3 mg/ml suspension, and the suspension was stirred by use of a stirrer for about 20 minutes at room temperature. The suspension was subjected to ultrasound treatment for 5 minutes while being cooled with ice, to thereby obtain a test solution containing Compound 1 for administration at 30 mg/kg/day.
# Five-week-old Donryu male rats were divided into a control group and treatment groups so that the average body weights of the groups and the standard deviations (S.D.) of the groups were made to be as close to one another as possible. To each rat of the anti-tumor-agent treatment alone groups, the CPT-11 solution was intravenously administered once a day for five consecutive days at a daily dose of 1.0 ml per 100 g of body weight. […] The number of rats which had diarrhea at least once during the test period were counted as “diarrhea-rats”. The accumulated occurrence of diarrhea was calculated by use of the following equation: accumulated occurrence of diarrhea (%)=(the number of rats which had diarrhea/the total number of rats)×100
# [3] = Test 1: alleviating effect on suppression of body weight increase caused by 5-FU or CDDP
# Method: 5-Fluorouracil (hereinafter referred to as “5-FU”) was suspended in saline so as to obtain a 2.0 mg/ml suspension, and the suspension was stirred by use of a stirrer for about 20 minutes at room temperature. The suspension was treated with sonication for 5 minutes while being cooled with ice, to thereby obtain a test solution containing 5-FU for administration at 20 mg/kg/day.
# Cisplatin (hereinafter referred to as “CDDP”) was suspended in saline so as to obtain a 0.1 mg/ml suspension, and the suspension was stirred by use of a stirrer for about 20 minutes at room temperature. The suspension was treated with sonication for 5 minutes while being cooled with ice, to thereby obtain a test solution containing CDDP for administration at 1.0 mg/kg/day.
# Compound 1 was suspended in water so as to obtain a 10 mg/ml suspension, and the suspension was stirred by use of a stirrer for about 20 minutes at room temperature. The suspension was treated with sonication for 5 minutes while being cooled with ice, to thereby obtain a test solution containing Compound 1 for administration at 100 mg/kg/day.
# Five-week-old Donryu male rats were divided into a control group and treatment groups so that the average body weights of the groups and the standard deviations (S.D.) of the groups were made to be as close to one another as possible. To each rat of the anti-tumor-agent treatment alone groups, the 5-FU solution or the CDDP solution was intravenously administered once a day for four consecutive days at a daily dose of 1.0 ml per 100 g of body weight. Simultaneously, water was orally administered once a day for four consecutive days at a daily dose of 1.0 ml per 100 g of body weight. To each rat of the combination-administration treatment groups, the 5-FU solution or the CDDP solution was intravenously administered once a day for four consecutive days at a daily dose of 1.0 ml per 100 g of body weight. Simultaneously, to each rat of the combination-administration groups, the solution of Compound 1 was orally administered once a day for four consecutive days at a daily dose of 1.0 ml per 100 g of body weight. To each rat of the control group, saline was intravenously administered once a day for four consecutive days at a daily dose of 1.0 ml per 100 g of body weight. Simultaneously, water was orally administered once a day for four consecutive days at a daily dose of 1.0 ml per 100 g of body weight.
# The rats were weighed prior to initiation of administration (day 1) and on the day following the day of final administration (day 5), and the ratio of suppression of body weight increase was calculated by use of the following equation.
# Test results were statistically analyzed using the Student's “T” test. […]
# IL-6 = experiment: Test 4: IL-6 level in the small intestine and the large intestine (ELISA); assay type: in vivo, ICR mice; conditions: for Level of inflammatory cytokine IL-6 in the small intestine and the large intestine (in words): FTD 200 mg/kg/day eight consecutive days vs control, Compound 1 94 mg/kg incorporated; for Large intestine IL-6 / Small intestine IL-6: day 9, oral, eight days, FTD 200 mg/kg/day, Compound 1 94 mg/kg/day in the mixture, alone 100 mg/kg/day
# Method: (§1) To each rat of the control group, a 0.5% HPMC solution was perorally administered for eight consecutive days. In order to observe the action of Compound 1 per se, Compound 1-administration alone groups were provided for administration of 100 mg/kg/day. […] Immediately after the collected region were washed with saline, the portions were frozen to preserve at −80° C. Each sample preparation was diluted with a 0.05M phosphate buffer (pH 7.4) so as to attain a tissue concentration of approximately 10% (W/V), and the resultant mixture was homogenized, subjected to sonication, and subjected twice to freeze-thawing. The thus-treated matter was centrifuged at 12,000 g for 15 minutes, and the supernatant was collected to serve as a sample for cytokine measurement. Cytokines, i.e., IL-1β and mouse IL-6 were measured by use of an ELISA kit for mouse (product of Endogen, Inc.), and the results are shown in Table 4. Test results were statistically analyzed in accordance with the Dunnett method ((*; p<0.05) and (**; p<0.01)).
# IL-1β = experiment: Test 4: IL-1β level in the large intestine (ELISA); assay type: in vivo, ICR mice; conditions: for Level of IL-1β in the large intestine (in words): FTD 200 mg/kg/day eight consecutive days vs control, Compound 1 94 mg/kg incorporated; for Large intestine IL-1β: day 9, oral, eight days, FTD 200 mg/kg/day, Compound 1 94 mg/kg/day in the mixture, alone 100 mg/kg/day
# Method: as §1
# [4] = Test 4: measurement of body weight change after FTD; assay type: in vivo, ICR mice; conditions: for Weight change ratio (%): body weight changes/body weight before administration x100, eight days, alone 100 mg/kg/day; for Weight change ratio (%) / Body weight change: oral, FTD 200 mg/kg/day, Compound 1 94 mg/kg/day in the mixture; for Body weight change: day 0 to day 9, eight consecutive days, Compound 1 alone 100 mg/kg/day
# Method: 5-Trifluoromethyl-2′-deoxyuridine (hereinafter abbreviated as FTD) was suspended in a 0.5% HPMC solution so as to obtain a 20 mg/ml suspension, and the suspension was stirred by use of a stirrer for about 20 minutes at room temperature.
# FTD was suspended in a 0.5% HPMC solution so as to obtain a 20 mg/ml suspension. To the suspension, Compound 1 was added so as to attain a concentration of 9.4 mg/ml. The resultant mixture was stirred by use of a stirrer for about 20 minutes at room temperature, and then subjected to sonication under ice cooling, to thereby obtain a test solution containing FTD and Compound 1 (mol ratio 1:0.5).
# Compound 1 was suspended in a 0.5% HPMC solution so as to obtain a 10 mg/ml suspension, and the suspension was stirred by use of a stirrer for about 20 minutes at room temperature. The suspension was subjected to sonication for 5 minutes under ice cooling, to thereby obtain a test solution containing Compound 1 for administration of 100 mg/kg/day.
# Eight-week-old male ICR rats were divided into a control group and treatment groups so that the average body weights of the groups and the standard deviations (S.D.) of the groups were made to be as close to one another as possible. To each rat of the FTD treatment alone groups, the FTD solution of 200 mg/kg/day (1.0 ml) was orally administered once a day for eight consecutive days (per 100 g body weight of each rat). To each rat of combination-administration treatment groups, a mixture solution of FTD and Compound 1 was perorally administered once a day for eight consecutive days at a daily dose of 1.0 ml per 100 g of body weight. To each rat of the control group, a 0.5% HPMC solution was perorally administered for eight consecutive days. In order to observe the action of Compound 1 per se, Compound 1-administration alone groups were provided for administration of 100 mg/kg/day.
# The rats were weighed at the previous day of the first administration (day 0) and the following day of the day of final administration (day 9), and the ratio of body weight ratio was calculated by use of the following equation. Ratio of body weight change (%)=body weight changes/body weight before administration×100
# [5] = CDDP 6.0 mg/kg i.v. on first day + vehicle oral 7 days
# [6] = Compound 1 30 mg/kg/day oral 7 days, with CDDP 6.0 mg/kg i.v. day 1 or saline
# [7] = Compound 1 100 mg/kg/day oral 7 days, with CDDP 6.0 mg/kg i.v. day 1 or saline
# [8] = Compound 1 300 mg/kg/day oral 7 days, with CDDP 6.0 mg/kg i.v. day 1 or saline
smiles,measurement,setting,value
"[NH2][Pt]([NH2])([Cl])[Cl] [CDDP, Cisplatin, reference compound]",Tumor weight,Yoshida sarcoma; CDDP 6.0 mg/kg i.v. on first day + 0.5% HPMC vehicle oral 7 days,0.162 ± 0.155 g
same,Anti-tumor action / inhibition of tumor weight (in words),Yoshida sarcoma,Significant inhibition of tumor weight
same,Inhibition ratio (%),Yoshida sarcoma; [5],75.7%
same,Suppression of body weight (in words),[1],Significant inhibition
same,Body weight change,[1]; [5],-19.4 ± 8.6 g
same,Weight change ratio (%),[1]; [5],174.9%
"CCc1c2c(nc3ccc(OC(=O)N4CCC(N5CCCCC5)CC4)cc13)-c1cc3c(c(=O)n1C2)COC(=O)[C@]3(O)CC [CPT-11, Irinotecan hydrochloride, reference compound]","Accumulated occurrence of diarrhea (FIG. 1, in words)",[2],diarrhea occurred after the third administration day
"Cl.N=C1CCCN1Cc1[nH]c(=O)[nH]c(=O)c1Cl [Compound 1, 5-Chloro-6-(2-iminopyrrolidin-1-yl)methyl-2,4-(1H,3H)-pyrimidinedione Hydrochloride]","Occurrence of diarrhea, combination-administration groups vs anti-tumor-agent-administration alone groups",[3]; Compound 1 100 mg/kg/day with 5-FU 20 mg/kg/day or CDDP 1.0 mg/kg/day,lower
same,Anti-tumor action / inhibition of tumor weight (in words),Yoshida sarcoma,without affecting the anti-tumor action
same,Tumor weight,Yoshida sarcoma; [6],0.787 ± 0.307 g
same,Tumor weight,Yoshida sarcoma; [7],0.816 ± 0.329 g
same,Tumor weight,Yoshida sarcoma; [8],0.829 ± 0.281 g
same,Inhibition ratio (%),Yoshida sarcoma; [6],−18.1%
same,Inhibition ratio (%),Yoshida sarcoma; [7],−22.4%
same,Inhibition ratio (%),Yoshida sarcoma; [8],−24.5%
same,"Accumulated occurrence of diarrhea (FIG. 1, in words)",[2],delayed
same,Level of inflammatory cytokine IL-6 in the small intestine and the large intestine (in words),IL-6,inhibited
same,Large intestine IL-6,IL-6,10.7 ± 4.7 pg/mg protein
same,Small intestine IL-6,IL-6,19.8 ± 9.9 pg/mg protein
same,Suppression of body weight (in words),[1],suppression of body weight was alleviated
same,Body weight change,[1]; [6],29.3 ± 10.2 g
same,Body weight change,[1]; [7],23.9 ± 6.6 g
same,Body weight change,[1]; [8],28.1 ± 6.0 g
same,Weight change ratio (%),[1]; [6],−13.1%
same,Weight change ratio (%),[1]; [7],7.7%
same,Weight change ratio (%),[1]; [8],−8.5%
same,Level of IL-1β in the large intestine (in words),IL-1β,inhibited
same,Large intestine IL-1β,IL-1β,23.7 ± 4.6 pg/mg protein
same,Decrease in the body weight caused by FTD (in words),[4]; Compound 1 94 mg/kg/day incorporated with FTD 200 mg/kg/day,protected
same,Weight change ratio (%),[4],6.8%
same,Body weight change,[4],2.4 ± 1.1 g
"O=c1[nH]cc(F)c(=O)[nH]1 [Compound 5-FU, 5-Fluorouracil]",Suppression of body weight increase (in words),"[3]; 5-FU 20 mg/kg/day or CDDP 1.0 mg/kg/day for 4 consecutive days, Compound 1 100 mg/kg/day in combination with the anti-tumor agent",Suppression of body weight increase was confirmed
same,Body weight change,"[3]; day 1 to day 5, 5-FU 20 mg/kg/day or CDDP 1.0 mg/kg/day i.v., Compound 1 100 mg/kg/day oral, four consecutive days, mean ± S.D.",15.6 ± 3.6 g
same,Suppression ratio (%) (ratio of suppression of body weight increase),"[3]; vs control group, 5-FU 20 mg/kg/day or CDDP 1.0 mg/kg/day i.v., Compound 1 100 mg/kg/day oral, four consecutive days",46.7%
"O=c1[nH]c(=O)n([C@H]2C[C@H](O)[C@@H](CO)O2)cc1C(F)(F)F [FTD, 5-Trifluoromethyl-2′-deoxyuridine, reference compound]",Level of inflammatory cytokine IL-6 in the small intestine and the large intestine (in words),IL-6,high level
same,Large intestine IL-6,IL-6,118.0 ± 47.6** pg/mg protein
same,Small intestine IL-6,IL-6,95.5 ± 19.2** pg/mg protein
same,Level of IL-1β in the large intestine (in words),IL-1β,elevated
same,Large intestine IL-1β,IL-1β,77.3 ± 42.1** pg/mg protein
same,Weight change ratio (%),[4],−17.6%
same,Body weight change,[4],-1.6 ± 4.7 g
same,Decrease ratio of the body weight at the following day of the final administration to that before administration,[4]; solo FTD 200 mg/kg daily for eight consecutive days,approximately 18%
